Experimental data reported in the NIST ThermoML archive (doi:10.1016/j.fluid.2017.06.022).
Where “and” joins values, the source holds several entries; their conditions need not be identical. Equal entries are not always repeated.

Assay: xn = mol fraction of the nth substance listed
Conditions: Liquid, Bellows volumetry

C=C [ethene] + Cc1ccccc1
Conditions	mass density
325.3 K, 3200 kPa, x1 = 0.3067	729.1 kg/m3
325.3 K, 3400 kPa, x1 = 0.3067	730.3 kg/m3
325.3 K, 4100 kPa, x1 = 0.3067	731.4 kg/m3 and 730.8 kg/m3
325.3 K, 5500 kPa, x1 = 0.3067	733.1 kg/m3
325.3 K, 6900 kPa, x1 = 0.3067	734.9 kg/m3
325.3 K, 8500 kPa, x1 = 0.3067	737.2 kg/m3
325.3 K, 10200 kPa, x1 = 0.3067	738.9 kg/m3
325.3 K, 11600 kPa, x1 = 0.3067	740.7 kg/m3
325.3 K, 13400 kPa, x1 = 0.3067	743.1 kg/m3
326.2 K, 1270 kPa, x1 = 0.1194	779.8 kg/m3
326.2 K, 1340 kPa, x1 = 0.1194	781 kg/m3
326.2 K, 2020 kPa, x1 = 0.1194	781.6 kg/m3
326.2 K, 2570 kPa, x1 = 0.1194	782.2 kg/m3
326.2 K, 3390 kPa, x1 = 0.1194	783.5 kg/m3
326.2 K, 4760 kPa, x1 = 0.1194	784.7 kg/m3
326.2 K, 5790 kPa, x1 = 0.1194	785.4 kg/m3
326.2 K, 7090 kPa, x1 = 0.1194	787.2 kg/m3
326.2 K, 10310 kPa, x1 = 0.1194	790.4 kg/m3
326.2 K, 13590 kPa, x1 = 0.1194	793.6 kg/m3
348.7 K, 1490 kPa, x1 = 0.1194	759.4 kg/m3
348.7 K, 1560 kPa, x1 = 0.1194	759.4 kg/m3
348.7 K, 1970 kPa, x1 = 0.1194	760 kg/m3
348.7 K, 2380 kPa, x1 = 0.1194	760.5 kg/m3
348.7 K, 2860 kPa, x1 = 0.1194	761.7 kg/m3
348.7 K, 3400 kPa, x1 = 0.1194	762.3 kg/m3
348.7 K, 4090 kPa, x1 = 0.1194	763.5 kg/m3
348.7 K, 5150 kPa, x1 = 0.1194	764.7 kg/m3
348.7 K, 6420 kPa, x1 = 0.1194	765.8 kg/m3
348.7 K, 10040 kPa, x1 = 0.1194	770 kg/m3
348.7 K, 13810 kPa, x1 = 0.1194	774.9 kg/m3
348.7 K, 16900 kPa, x1 = 0.1194	777.9 kg/m3
348.7 K, 21130 kPa, x1 = 0.1194	782.2 kg/m3
348.7 K, 23670 kPa, x1 = 0.1194	785.4 kg/m3
348.7 K, 27850 kPa, x1 = 0.1194	789.1 kg/m3
348.7 K, 30800 kPa, x1 = 0.1194	792.3 kg/m3
348.7 K, 32790 kPa, x1 = 0.1194	793.6 kg/m3
351.6 K, 4100 kPa, x1 = 0.3067	706.4 kg/m3
351.6 K, 4800 kPa, x1 = 0.3067	707.5 kg/m3
351.6 K, 5500 kPa, x1 = 0.3067	708.6 kg/m3
351.6 K, 5600 kPa, x1 = 0.3067	708.6 kg/m3
351.6 K, 6200 kPa, x1 = 0.3067	709.7 kg/m3
351.6 K, 6900 kPa, x1 = 0.3067	710.7 kg/m3
351.6 K, 8600 kPa, x1 = 0.3067	713.5 kg/m3
351.6 K, 10400 kPa, x1 = 0.3067	716.2 kg/m3
351.6 K, 13700 kPa, x1 = 0.3067	721.2 kg/m3
351.6 K, 17000 kPa, x1 = 0.3067	725.7 kg/m3
351.6 K, 20300 kPa, x1 = 0.3067	730.3 kg/m3
351.6 K, 20700 kPa, x1 = 0.3067	730.8 kg/m3
351.6 K, 27400 kPa, x1 = 0.3067	738.9 kg/m3
351.6 K, 30700 kPa, x1 = 0.3067	742.5 kg/m3
373.8 K, 4800 kPa, x1 = 0.3067	677.2 kg/m3
373.8 K, 4900 kPa, x1 = 0.3067	678.1 kg/m3
373.8 K, 5500 kPa, x1 = 0.3067	679.6 kg/m3
373.8 K, 6200 kPa, x1 = 0.3067	680.6 kg/m3
373.8 K, 6900 kPa, x1 = 0.3067	682.1 kg/m3
373.8 K, 8600 kPa, x1 = 0.3067	685.1 kg/m3
373.8 K, 10300 kPa, x1 = 0.3067	688.2 kg/m3
373.8 K, 16700 kPa, x1 = 0.3067	698.5 kg/m3
373.8 K, 17400 kPa, x1 = 0.3067	699.5 kg/m3
373.8 K, 24000 kPa, x1 = 0.3067	709.1 kg/m3
373.8 K, 30800 kPa, x1 = 0.3067	718.4 kg/m3
373.8 K, 36900 kPa, x1 = 0.3067	725.7 kg/m3
373.8 K, 37700 kPa, x1 = 0.3067	726.8 kg/m3
373.8 K, 44200 kPa, x1 = 0.3067	734.3 kg/m3
373.8 K, 51200 kPa, x1 = 0.3067	741.9 kg/m3
375.1 K, 1860 kPa, x1 = 0.1194	732.3 kg/m3
375.1 K, 2200 kPa, x1 = 0.1194	733.4 kg/m3
375.1 K, 2880 kPa, x1 = 0.1194	734.5 kg/m3
375.1 K, 3430 kPa, x1 = 0.1194	735 kg/m3
375.1 K, 4460 kPa, x1 = 0.1194	736.7 kg/m3
375.1 K, 5830 kPa, x1 = 0.1194	738.3 kg/m3
375.1 K, 6720 kPa, x1 = 0.1194	740 kg/m3
375.1 K, 7330 kPa, x1 = 0.1194	740.6 kg/m3
375.1 K, 10280 kPa, x1 = 0.1194	745 kg/m3
375.1 K, 13770 kPa, x1 = 0.1194	749.6 kg/m3
375.1 K, 16990 kPa, x1 = 0.1194	753.6 kg/m3
375.1 K, 20680 kPa, x1 = 0.1194	758.2 kg/m3
375.1 K, 23900 kPa, x1 = 0.1194	761.7 kg/m3
375.1 K, 27390 kPa, x1 = 0.1194	766.4 kg/m3
375.1 K, 30540 kPa, x1 = 0.1194	769.4 kg/m3
375.1 K, 34240 kPa, x1 = 0.1194	773.7 kg/m3
375.1 K, 37600 kPa, x1 = 0.1194	777.3 kg/m3
375.1 K, 41300 kPa, x1 = 0.1194	781 kg/m3
375.1 K, 44240 kPa, x1 = 0.1194	783.5 kg/m3
375.1 K, 47940 kPa, x1 = 0.1194	787.2 kg/m3
421 K, 6400 kPa, x1 = 0.3067	620.7 kg/m3
421 K, 6900 kPa, x1 = 0.3067	622.8 kg/m3
421 K, 8600 kPa, x1 = 0.3067	628.3 kg/m3
421 K, 10500 kPa, x1 = 0.3067	633.8 kg/m3
421 K, 12400 kPa, x1 = 0.3067	638.2 kg/m3
421 K, 13800 kPa, x1 = 0.3067	643 kg/m3
421 K, 17300 kPa, x1 = 0.3067	652 kg/m3
421 K, 20700 kPa, x1 = 0.3067	659.9 kg/m3
421 K, 24300 kPa, x1 = 0.3067	667 kg/m3
421 K, 30700 kPa, x1 = 0.3067	678.1 kg/m3
